{
  "source": "paper PMC5218480",
  "about": "(PLoS ONE, 2017)",
  "tested_on": "MV-4-11 cells",
  "assay": "Gene expression microarray analysis (Affymetrix PrimeView) and GSEA",
  "format": "cell-based, human",
  "set-up": "RFU PODN (11730768_x_at) / Fold change /veh PODN (11730768_x_at) / RFU LINC00158 (11744669_a_at) / Fold change /veh LINC00158 (11744669_a_at) / RFU DUSP10 (11751237_a_at) / Fold change /veh DUSP10 (11751237_a_at) / RFU ID3 (11757404_x_at) / Fold change /veh ID3 (11757404_x_at) / RFU PLEKHG5 (11737974_s_at) / Fold change /veh PLEKHG5 (11737974_s_at) / RFU LRRC4B (11730491_at) / Fold change /veh LRRC4B (11730491_at) / RFU GIMAP4 (11747438_a_at) / Fold change /veh GIMAP4 (11747438_a_at) / RFU KRT8 (11758183_x_at) / Fold change /veh KRT8 (11758183_x_at) / RFU CNN1 (11734310_a_at) / Fold change /veh CNN1 (11734310_a_at) / RFU VPS37D (11726825_at) / Fold change /veh VPS37D (11726825_at) / RFU C10orf10 (11716522_x_at) / Fold change /veh C10orf10 (11716522_x_at) / RFU KIR2DL2 /// KIR2DL4 /// KIR2DL5A /// KIR2DL5B /// KIR2DS1 /// KIR2DS2 /// KIR2DS3 /// KIR2DS4 /// KIR3DL3 /// KIR3DL3 /// KIR3DS1 (11738374_at) / Fold change /veh KIR2DL2 /// KIR2DL4 /// KIR2DL5A /// KIR2DL5B /// KIR2DS1 /// KIR2DS2 /// KIR2DS3 /// KIR2DS4 /// KIR3DL3 /// KIR3DL3 /// KIR3DS1 (11738374_at) / RFU C1QL1 (11718748_at) / Fold change /veh C1QL1 (11718748_at) / RFU TMPRSS4 (11747572_a_at) / Fold change /veh TMPRSS4 (11747572_a_at) / RFU HAMP (11756126_x_at) / Fold change /veh HAMP (11756126_x_at) / RFU RNFT2 (11725882_a_at) / Fold change /veh RNFT2 (11725882_a_at) / RFU NR4A2 (11747474_a_at) / Fold change /veh NR4A2 (11747474_a_at) / RFU ABCC12 (11746883_a_at) / Fold change /veh ABCC12 (11746883_a_at) / RFU TMEM136 (11760407_x_at) / Fold change /veh TMEM136 (11760407_x_at) / RFU CLDN22 /// WWC2 (11732394_at) / Fold change /veh CLDN22 /// WWC2 (11732394_at) / RFU HLA-DPB1 (11760878_x_at) / Fold change /veh HLA-DPB1 (11760878_x_at) / RFU SPINT1 (11716480_a_at) / Fold change /veh SPINT1 (11716480_a_at) / RFU GAP43 (11754022_s_at) / Fold change /veh GAP43 (11754022_s_at) / RFU A4GNT (11735810_at) / Fold change /veh A4GNT (11735810_at) / RFU PRB3 (11715151_x_at) / Fold change /veh PRB3 (11715151_x_at) / RFU TUBB4B (11761932_at) / Fold change /veh TUBB4B (11761932_at) / RFU CAPN14 (11732068_a_at) / Fold change /veh CAPN14 (11732068_a_at) / RFU TMCC2 (11721928_a_at) / Fold change /veh TMCC2 (11721928_a_at) / RFU IRGQ (11745062_a_at) / Fold change /veh IRGQ (11745062_a_at) / RFU FAM174B (11720279_a_at) / Fold change /veh FAM174B (11720279_a_at) / RFU TMPRSS4 (11748680_a_at) / Fold change /veh TMPRSS4 (11748680_a_at) / RFU FAM212B (11763350_a_at) / Fold change /veh FAM212B (11763350_a_at) / RFU PLEKHG5 (11743358_a_at) / Fold change /veh PLEKHG5 (11743358_a_at) / RFU ZSCAN30 (11745921_a_at) / Fold change /veh ZSCAN30 (11745921_a_at) / RFU CMKLR1 (11741424_a_at) / Fold change /veh CMKLR1 (11741424_a_at) / RFU LOC101060620 /// MAPK8IP1 (11723275_at) / Fold change /veh LOC101060620 /// MAPK8IP1 (11723275_at) / RFU SPTSSB (11747773_x_at) / Fold change /veh SPTSSB (11747773_x_at) / RFU PRSS12 (11739890_at) / Fold change /veh PRSS12 (11739890_at) / RFU BIN1 (11741810_x_at) / Fold change /veh BIN1 (11741810_x_at) / RFU WNT11 (11732464_a_at) / Fold change /veh WNT11 (11732464_a_at) / RFU C10orf10 (11716521_a_at) / Fold change /veh C10orf10 (11716521_a_at) / RFU C5orf56 (11738089_at) / Fold change /veh C5orf56 (11738089_at) / RFU CYB561 (11721691_x_at) / Fold change /veh CYB561 (11721691_x_at) / RFU ANKRD19P (11752326_a_at) / Fold change /veh ANKRD19P (11752326_a_at) / RFU OR2T12 /// OR2T33 /// OR2T8 (11738714_s_at) / Fold change /veh OR2T12 /// OR2T33 /// OR2T8 (11738714_s_at) / RFU VCAN (11748164_a_at) / Fold change /veh VCAN (11748164_a_at) / RFU JSRP1 (11732532_at) / Fold change /veh JSRP1 (11732532_at) / RFU KRTAP10-11 (11738290_x_at) / Fold change /veh KRTAP10-11 (11738290_x_at) / RFU MYO3A (11730013_a_at) / Fold change /veh MYO3A (11730013_a_at) / RFU EBF3 (11725865_a_at) / Fold change /veh EBF3 (11725865_a_at) / RFU CAMK2N1 (11719241_x_at) / Fold change /veh CAMK2N1 (11719241_x_at) / RFU C5orf56 (11738088_a_at) / Fold change /veh C5orf56 (11738088_a_at) / RFU OLFML3 (11715873_a_at) / Fold change /veh OLFML3 (11715873_a_at) / RFU LOC100653217 /// NTM (11731650_a_at) / Fold change /veh LOC100653217 /// NTM (11731650_a_at) / RFU MAPK11 (11762145_a_at) / Fold change /veh MAPK11 (11762145_a_at) / RFU FIZ1 (11724087_x_at) / Fold change /veh FIZ1 (11724087_x_at) / RFU OASL (11726364_x_at) / Fold change /veh OASL (11726364_x_at) / RFU SOX15 (11748057_x_at) / Fold change /veh SOX15 (11748057_x_at) / RFU CD79A (11719716_a_at) / Fold change /veh CD79A (11719716_a_at) / RFU HIST1H1D (11736915_at) / Fold change /veh HIST1H1D (11736915_at) / RFU CASKIN2 (11723855_a_at) / Fold change /veh CASKIN2 (11723855_a_at) / RFU LOC730098 (11760151_x_at) / Fold change /veh LOC730098 (11760151_x_at) / RFU OR4N2 (11742367_at) / Fold change /veh OR4N2 (11742367_at) / RFU PRRT2 (11749266_a_at) / Fold change /veh PRRT2 (11749266_a_at) / RFU SNX32 (11753110_a_at) / Fold change /veh SNX32 (11753110_a_at) / RFU CDHR5 (11726645_a_at) / Fold change /veh CDHR5 (11726645_a_at) / RFU RCAN1 (11760418_a_at) / Fold change /veh RCAN1 (11760418_a_at) / RFU FAM167A (11723789_a_at) / Fold change /veh FAM167A (11723789_a_at) / RFU FAM26E (11764081_at) / Fold change /veh FAM26E (11764081_at) / RFU ISYNA1 (11749810_s_at) / Fold change /veh ISYNA1 (11749810_s_at) / RFU ACY1 (11761880_at) / Fold change /veh ACY1 (11761880_at) / RFU 11764098_at / Fold change /veh 11764098_at / RFU SAMD14 (11745864_x_at) / Fold change /veh SAMD14 (11745864_x_at) / RFU NPB (11741838_a_at) / Fold change /veh NPB (11741838_a_at) / RFU TMPRSS6 (11731388_a_at) / Fold change /veh TMPRSS6 (11731388_a_at) / RFU KRTAP10-2 (11738614_at) / Fold change /veh KRTAP10-2 (11738614_at) / RFU ARHGAP8 /// PRR5-ARHGAP8 (11727945_x_at) / Fold change /veh ARHGAP8 /// PRR5-ARHGAP8 (11727945_x_at) / RFU KRTAP5-7 /// NADSYN1 (11734609_at) / Fold change /veh KRTAP5-7 /// NADSYN1 (11734609_at) / RFU RASL12 (11751679_a_at) / Fold change /veh RASL12 (11751679_a_at) / RFU CDKN2B (11736163_a_at) / Fold change /veh CDKN2B (11736163_a_at) / RFU PRF1 (11729649_at) / Fold change /veh PRF1 (11729649_at) / RFU, ZNF638 /// ZNF638-IT1 / Fold change vs veh, ZNF638 /// ZNF638-IT1 / RFU, PANK3 / Fold change vs veh, PANK3 / RFU, SH3YL1 / Fold change vs veh, SH3YL1 / RFU, ZEB2 / Fold change vs veh, ZEB2 / RFU, NRIP1 / Fold change vs veh, NRIP1 / RFU, PTTG1IP / Fold change vs veh, PTTG1IP / RFU, CAPN2 / Fold change vs veh, CAPN2 / RFU, MED14 / Fold change vs veh, MED14 / RFU, SNORA58 / Fold change vs veh, SNORA58 / RFU, C1orf63 / Fold change vs veh, C1orf63 / RFU, LRRFIP1 / Fold change vs veh, LRRFIP1 / RFU, NDUFAF7 / Fold change vs veh, NDUFAF7 / RFU, SLC12A2 / Fold change vs veh, SLC12A2 / RFU, IBTK / Fold change vs veh, IBTK / RFU, ESF1 / Fold change vs veh, ESF1 / Fold change vs veh, TMEM50B / RFU, TAOK1 / Fold change vs veh, TAOK1 / RFU, ACBD3 / Fold change vs veh, ACBD3 / RFU, TMA16 / Fold change vs veh, TMA16 / RFU, RWDD3 / Fold change vs veh, RWDD3 / RFU, BCAT1 / Fold change vs veh, BCAT1 / RFU, EDEM3 / Fold change vs veh, EDEM3 / RFU, TMEM33 / Fold change vs veh, TMEM33 / RFU, WDR75 / Fold change vs veh, WDR75 / RFU, AHCTF1 / Fold change vs veh, AHCTF1 / RFU, TFRC / Fold change vs veh, TFRC / RFU, ZDHHC17 / Fold change vs veh, ZDHHC17 / RFU, NOM1 / Fold change vs veh, NOM1 / RFU, ARL8B / Fold change vs veh, ARL8B / RFU, ZBTB11 / Fold change vs veh, ZBTB11 / RFU, TAMM41 / Fold change vs veh, TAMM41 / RFU, KIAA1704 /// LOC100996395 / Fold change vs veh, KIAA1704 /// LOC100996395 / RFU, ING1 / Fold change vs veh, ING1 / RFU, TRMT61B / Fold change vs veh, TRMT61B / RFU, FUBP3 / Fold change vs veh, FUBP3 / RFU, TP53 / Fold change vs veh, TP53 / RFU, TNKS2 / Fold change vs veh, TNKS2 / RFU, ZFP14 / Fold change vs veh, ZFP14 / RFU, ACTR2 / Fold change vs veh, ACTR2 / RFU, PPP3R1 / Fold change vs veh, PPP3R1 / RFU, PIK3R1 / Fold change vs veh, PIK3R1 / RFU, HNRNPA1 / Fold change vs veh, HNRNPA1 / RFU, RNF170 / Fold change vs veh, RNF170 / RFU, ZNF28 / Fold change vs veh, ZNF28 / RFU, RNGTT / Fold change vs veh, RNGTT / RFU, OGT / Fold change vs veh, OGT / RFU, BRD1 / Fold change vs veh, BRD1 / RFU, MARS / Fold change vs veh, MARS / RFU, ZNF655 / Fold change vs veh, ZNF655 / RFU, FAHD1 / Fold change vs veh, FAHD1 / RFU, BDP1 / Fold change vs veh, BDP1 / RFU, LRRCC1 / Fold change vs veh, LRRCC1 / RFU, ARID1A / Fold change vs veh, ARID1A / RFU, ZNF146 / Fold change vs veh, ZNF146 / RFU, ZNF330 / Fold change vs veh, ZNF330 / RFU, GPN3 / Fold change vs veh, GPN3 / RFU, C9orf123 / Fold change vs veh, C9orf123 / RFU, N4BP2L2 / Fold change vs veh, N4BP2L2 / RFU, ARFIP1 / Fold change vs veh, ARFIP1 / RFU, FAM179B / Fold change vs veh, FAM179B / RFU, BCL10 / Fold change vs veh, BCL10 / RFU, UHRF1BP1L / Fold change vs veh, UHRF1BP1L / RFU, BET1 / Fold change vs veh, BET1 / RFU, CNOT2 / Fold change vs veh, CNOT2 / RFU, ZNF268 / Fold change vs veh, ZNF268 / Fold change vs veh, ZNF507 / RFU, DGCR2 / Fold change vs veh, DGCR2 / RFU, WDSUB1 / Fold change vs veh, WDSUB1 / Fold change vs veh, HSP90B1 /// MIR3652 / RFU, ADSS / Fold change vs veh, ADSS / RFU, GK / Fold change vs veh, GK / RFU, ZNF148 / Fold change vs veh, ZNF148 / RFU, TAF9 / Fold change vs veh, TAF9 / RFU, SLC1A5 / Fold change vs veh, SLC1A5 / RFU, SLMO2 / Fold change vs veh, SLMO2 / RFU, ABCC4 / Fold change vs veh, ABCC4 / RFU, LOC101060439 /// RAP1B / Fold change vs veh, LOC101060439 /// RAP1B / RFU, RFX7 / Fold change vs veh, RFX7 / RFU, GTPBP10 / Fold change vs veh, GTPBP10 / RFU, CNEP1R1 / Fold change vs veh, CNEP1R1 / RFU, BIVM-ERCC5 /// ERCC5 / Fold change vs veh, BIVM-ERCC5 /// ERCC5 / RFU, ILF3 / Fold change vs veh, ILF3 / RFU 11762660_at / Fold change /veh 11762660_at / RFU VCAN (11757783_s_at) / Fold change /veh VCAN (11757783_s_at) / RFU DDX43 (11728927_at) / Fold change /veh DDX43 (11728927_at) / RFU KRT8 (11758188_x_at) / Fold change /veh KRT8 (11758188_x_at) / RFU NKD1 (11759106_at) / Fold change /veh NKD1 (11759106_at) / RFU SRD5A1 (11742802_a_at) / Fold change /veh SRD5A1 (11742802_a_at) / RFU TPSAB1 /// TPSB2 (11721975_s_at) / Fold change /veh TPSAB1 /// TPSB2 (11721975_s_at) / RFU GSTM3 (11746129_a_at) / Fold change /veh GSTM3 (11746129_a_at) / RFU IL23R (11737362_x_at) / Fold change /veh IL23R (11737362_x_at) / RFU TMEM51 (11727254_a_at) / Fold change /veh TMEM51 (11727254_a_at) / RFU PIWIL2 (11732686_x_at) / Fold change /veh PIWIL2 (11732686_x_at) / RFU ORM1 (11744905_x_at) / Fold change /veh ORM1 (11744905_x_at) / RFU CCDC152 (11743942_at) / Fold change /veh CCDC152 (11743942_at) / RFU ECM1 (11717891_a_at) / Fold change /veh ECM1 (11717891_a_at) / RFU IL23R (11748794_a_at) / Fold change /veh IL23R (11748794_a_at) / RFU TNFAIP8L3 (11732012_x_at) / Fold change /veh TNFAIP8L3 (11732012_x_at) / RFU MBOAT4 (11741988_at) / Fold change /veh MBOAT4 (11741988_at) / RFU 11764193_at / Fold change /veh 11764193_at / RFU TMEM53 (11763286_at) / Fold change /veh TMEM53 (11763286_at) / RFU MAGEB2 (11727129_at) / Fold change /veh MAGEB2 (11727129_at) / RFU TMEM200A (11744735_a_at) / Fold change /veh TMEM200A (11744735_a_at) / RFU CCDC152 (11751479_a_at) / Fold change /veh CCDC152 (11751479_a_at) / RFU FAM211A (11726209_a_at) / Fold change /veh FAM211A (11726209_a_at) / RFU RGS16 (11746705_a_at) / Fold change /veh RGS16 (11746705_a_at) / RFU VCAN (11755009_s_at) / Fold change /veh VCAN (11755009_s_at) / RFU RHOB (11743442_s_at) / Fold change /veh RHOB (11743442_s_at) / RFU RGS16 (11720943_a_at) / Fold change /veh RGS16 (11720943_a_at) / RFU RGS16 (11720944_at) / Fold change /veh RGS16 (11720944_at) / RFU, VPS4B / Fold change vs veh, VPS4B / RFU, CREB1 / Fold change vs veh, CREB1 / RFU, DNAJC13 / Fold change vs veh, DNAJC13 / RFU, GNAQ / Fold change vs veh, GNAQ / RFU, CDK5R1 / Fold change vs veh, CDK5R1 / RFU, ZRANB3 / Fold change vs veh, ZRANB3 / RFU, CUL4A / Fold change vs veh, CUL4A / RFU, CCNY / Fold change vs veh, CCNY / RFU, UFL1 / Fold change vs veh, UFL1 / RFU, COG3 / Fold change vs veh, COG3 / RFU, DIAPH2 / Fold change vs veh, DIAPH2 / RFU, SKA2 / Fold change vs veh, SKA2 / RFU, AFF3 / Fold change vs veh, AFF3 / RFU, LMF1 / Fold change vs veh, LMF1 / RFU, IPO11 / Fold change vs veh, IPO11 / RFU, DFFB / Fold change vs veh, DFFB / RFU, FOXP1 / Fold change vs veh, FOXP1 / RFU, CARD8 / Fold change vs veh, CARD8 / RFU, STRN3 / Fold change vs veh, STRN3 / RFU, ADK / Fold change vs veh, ADK / RFU, RASSF2 / Fold change vs veh, RASSF2 / RFU, WIPF1 / Fold change vs veh, WIPF1 / RFU, LARP1B / Fold change vs veh, LARP1B / RFU, RASA1 / Fold change vs veh, RASA1 / RFU, RB1 / Fold change vs veh, RB1 / RFU, PPFIA1 / Fold change vs veh, PPFIA1 / RFU, MAT2A / Fold change vs veh, MAT2A / RFU, CCT5 / Fold change vs veh, CCT5 / RFU, WDR92 / Fold change vs veh, WDR92 / RFU, CUX1 / Fold change vs veh, CUX1 / RFU, TTC7A / Fold change vs veh, TTC7A / RFU, TMEM135 / Fold change vs veh, TMEM135 / RFU, DEPTOR / Fold change vs veh, DEPTOR / RFU, CPM / Fold change vs veh, CPM / RFU, DNAJB6 / Fold change vs veh, DNAJB6 / RFU, CACNA2D3 / Fold change vs veh, CACNA2D3 / RFU, DTX4 / Fold change vs veh, DTX4 / RFU, TFCP2 / Fold change vs veh, TFCP2 / RFU, GMCL1 /// GMCL1P1 / Fold change vs veh, GMCL1 /// GMCL1P1 / RFU, AEBP2 / Fold change vs veh, AEBP2 / RFU, SNHG1 /// SNORD22 /// SNORD25 /// SNORD26 /// SNORD27 /// SNORD28 /// SNORD29 /// SNORD31 / Fold change vs veh, SNHG1 /// SNORD22 /// SNORD25 /// SNORD26 /// SNORD27 /// SNORD28 /// SNORD29 /// SNORD31 / Fold change (Aza/veh), C12orf56 (ProbeSet 11735607_a_at) / Fold change (ACY-1035/veh), C12orf56 (ProbeSet 11735607_a_at) / Fold change (Aza/veh), FGFR1OP (ProbeSet 11751329_s_at) / Fold change (ACY-1035/veh), FGFR1OP (ProbeSet 11751329_s_at) / Fold change (Aza/veh), VPS36 (ProbeSet 11739960_a_at) / Fold change (ACY-1035/veh), VPS36 (ProbeSet 11739960_a_at) / RFU SYPL1 (11715823_x_at) / Fold change /veh SYPL1 (11715823_x_at) / RFU IGFBP7 (11715501_s_at) / Fold change /veh IGFBP7 (11715501_s_at) / RFU REEP3 (11722064_at) / Fold change /veh REEP3 (11722064_at) / RFU IGLL1 (11728026_x_at) / Fold change /veh IGLL1 (11728026_x_at): dose or concentration left out as unconfirmed",
  "details": "ProbeSet 11743362_s_at; LIST B",
  "data": [
    {"smiles": "Nc1ncn([C@@H]2O[C@H](CO)[C@@H](O)[C@H]2O)c(=O)n1", "note": "[azacitidine]", "values": [
      {"measurement": "RFU, ADSS", "value": 624.28, "unit": "RFU"}
    ]}
  ]
}
